A short description of data set [1]: Solubility experiment in various solvents. In kind it is physicochemical. An excerpt:
[Experimental Example 1] Solubility Experiment of tetrakis(triphenylstannyl) Silicate
For manufacturing a thin film including the tetrakis(triphenylstannyl) silicate compound prepared in Example 1, solubility in various solvents was experimented and is shown in the following Tables 2 and 3: […]

Data set [2] is described as follows: Stability in water (precipitation) of solution with acetic acid. In kind it is physicochemical. The procedure: Since the photoresist composition included acetic acid, stability of tetrakis(triacetoxystannyl) silicate in water was able to be improved. When water was added at 5% to a 5% tetrakis(triacetoxystannyl) silicate solution, it was confirmed that precipitation occurred immediately. However, when acetic acid was added, precipitation was able to be prevented. It was confirmed that precipitation occurred after 3 minutes in a 10% acetic acid solution, after 3 hours in a 20% solution, and after 5 days in a 30% solution. Besides, the amount of precipitation was decreased as the acetic acid was added. Regarding a large amount of acetic acid, since a hydrolysis rate of an acetoxy group decreased according to le Chatelier's law, stability in water was improved.

For the molecule `c1cc[c]([Sn]([O][Si]([O][Sn]([c]2ccccc2)([c]2ccccc2)[c]2ccccc2)([O][Sn]([c]2ccccc2)([c]2ccccc2)[c]2ccccc2)[O][Sn]([c]2ccccc2)([c]2ccccc2)[c]2ccccc2)([c]2ccccc2)[c]2ccccc2)cc1` [Example 1, tetrakis(triphenylstannyl) silicate], the Solubility result in data set [1] (Chloroform) was “highest solubilites and ◯”; in data set [1] (Ethyl lactate (EL)), “Δ”; in data set [1] (THF), “highest solubilites and ◯”; in data set [1] (gamma-Butyrolactone (GBL)) it was “Δ”.
Turning to `CC(=O)[O][Sn]([O]C(C)=O)([O]C(C)=O)[O][Si]([O][Sn]([O]C(C)=O)([O]C(C)=O)[O]C(C)=O)([O][Sn]([O]C(C)=O)([O]C(C)=O)[O]C(C)=O)[O][Sn]([O]C(C)=O)([O]C(C)=O)[O]C(C)=O` [Example 14, tetrakis(triacetoxystannyl) silicate], the “Time until precipitation occurred” value in data set [2] (water added at 5% to 5% solution, no acetic acid) is “immediately”; in data set [2] (water added, 10% acetic acid solution), 3 min; in data set [2] (water added, 20% acetic acid solution) it was 180 min; in data set [2] (water added, 30% acetic acid solution), 7200 min.

For the origin of these results see patent US20240228518A1, “NOVEL ORGANOTIN SILICATE COMPOUNDS, PREPARATION METHODS THEREOF AND PHOTORESIST COMPOSITION CONTAINING THE SAME” (JSI SILICONE CO., priority 2022, published 2024).
